In patent US20040123342A1, “Monocotyledonous plant transformation” (Sugar Research & Development Corporation, priority 2000, published 2004):

How the values were obtained:
[1] = system: TS leaf whorl explants obtained from the Q187 and Q124 sugarcane cultivars; experiment: Cross-testing of NAA and BA concentrations for shoot regeneration from thin section leaf whorl explants; format: cell-based; details: for optimal concentration in culture medium for regeneration: Q187 and Q124 TS leaf whorl explants
Protocol: Murashige & Skoog (MS) nutrient formulation supplemented with 30 g/L sucrose and 7.5 g/L Difco agar was used as the basal culture medium. Basal medium was, for certain phases of culture as will be described below, enriched with the cytokinin N^6-benzylaminopurine (BA) and the auxin a-napthaleneacetic acid NAA) together with anti-oxidants such as citric acid (CA), ascorbic acid (AA), or dithiothreitol (DTT). The pH of the medium was adjusted to 5.7 before autoclaving at 11kPa for 20 minutes at 120° C. TS explants were cultured in various orientations either in tissue culture dishes (90×14 mm) with 40 ml agar- solidified medium or in a 100 mL baby food jar containing 40 ml liquid medium, or on membrane rafts with flotation kept in a polypropylene container with 40 ml liquid medium. Liquid cultures were agitated continuously on a gyratory shaker at 120 rpm. All cultures were incubated at […] under 16 hr photoperiod provided by cool, white fluorescent tubes, Subculturing was carried out at least once a week, or more frequently if medium or TS turned brown due to phenolic exudation. Cross-testing of NAA and BA concentrations was also performed using TS leaf whorl explants obtained from the […] and […] sugarcane cultivars. […] However, higher concentrations of NAA (10-40 μM) promoted a slightly […] percentage of explants producing shoots. There was no clear trend in terms of the number of shoots produced with regard to either NAA or BA concentration, Generally, 4 μM BA was preferred at any given concentration of NAA, while NAA was optimal when present in culture medium at a concentration of 10 μM.

[2] = system: leaf TS explants (sugarcane cultivar Q165); experiment: Effect of selection agent on shoot regeneration from bombarded leaf TS explants; format: cell-based; details: 100 mg/L in medium, transfer at 3 days after bombardment
Protocol: Sugarcane leaf sheath tissue taken from just above the meristem was taken from cultivar Q165 plants. Transverse thin section explants (2-3 mm) of leaf whorl were obtained from the harvested tissue. These are generally referred to as leaf thin sections.
A number of preliminary experiments were performed to detennije parametens which provided optimal regeneration from transformed tissue while providing optimal selection of transformants.
Similar results were obtained when bombarded TS explants were transferred to medium containing even low levels of selection agent.

Molecule	optimal concentration in culture medium for regeneration [1] [µM]	regeneration efficiency, 4 μM vs 8 μM BA ([1]; cultivar Q124, any of the regeneration criteria examined)	regeneration efficiency, 4 μM vs 8 μM BA ([1]; cultivar Q187, TS leaf whorl explants)	percentage of explants producing shoots ([1]; higher concentrations of NAA (10-40 μM))	shoot regeneration [2]
c1ccc(CNc2ncnc3nc[nH]c23)cc1 [BA, N^6-benzylaminopurine]	4	no clear preference	4 μM BA was clearly more efficient than 8 μM BA	–	–
O=C(O)Cc1cccc2ccccc12 [NAA, a-napthaleneacetic acid]	10	–	–	slightly hither percentage of explants producing shoots	–
paromomycin sulphate	–	–	–	–	no shoot regeneration
